Experimental findings from patent US8586607B2, “Compounds for the treatment of metabolic diseases” (Syddansk Universitet, priority 2008, dated 2013) are described below.

This assay addresses human GPR40 (Homo sapiens, UniProt O14842). In words: Calcium mobilization assay, agonistic activity on GPR40. Particulars: cells expressing human GPR40 (hGPR40-1321N1); for EC50: read-out: GPR40 agonistic activity (pEC50) (converted). The class given is cell-based. On the procedure: Cell Culture and Transfection. 1321N1 cells stably transfected with the human GPR40 were kindly provided by Euroscreen (Gosselies, Belgium). hGPR40-1321N1 cells were grown in Dulbecco's modified Eagle's medium supplemented with 10% (v/v) heat-inactivated fetal calf serum, 1% sodium pyruvate, 100 U/ml penicillin, 100 μg/ml streptomycin, and 400 μg/ml G418. 1321N1, HEK293 cells were grown in Dulbecco's modified Eagle's medium supplemented with 10% (v/v) heat-inactivated fetal calf serum, 1% sodium pyruvate, 100 U/ml penicillin, and 100 μg/ml streptomycin. All cells were kept at 37° C. in a 5% CO2 atmosphere. […]
Calcium Mobilization Assays. Calcium measurements were performed using a NOVOstar® microplate reader with a built-in pipetor (BMG LabTech, Offenburg, Germany). Cells were seeded in 96-well tissue-culture plates at a density of 30,000 cells per well. […] For testing of agonists, 20 μl of a ten-fold concentrated test compound solution was injected sequentially into separate wells and fluorescence was measured at 520 nm (bandwidth 25 nm) for 50 intervals of 0.4 seconds each. […] Concentration-inhibition curves in the presence of the test compounds were obtained by preincubating the cells with the compounds for 30 min at 37° C. prior to injection of agonist.

human GPR40, sequence (O14842 whole entry): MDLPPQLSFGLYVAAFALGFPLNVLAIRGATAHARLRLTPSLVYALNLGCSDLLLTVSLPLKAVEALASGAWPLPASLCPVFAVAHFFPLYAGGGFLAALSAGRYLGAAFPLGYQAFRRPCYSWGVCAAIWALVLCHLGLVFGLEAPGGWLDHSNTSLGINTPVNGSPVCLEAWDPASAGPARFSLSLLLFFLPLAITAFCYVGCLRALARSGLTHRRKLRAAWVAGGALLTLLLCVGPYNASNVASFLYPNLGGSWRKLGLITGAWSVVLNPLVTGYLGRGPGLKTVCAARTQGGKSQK

Regarding `O=C(O)[C@@H]1C[C@H]1c1ccc(C#Cc2ccccc2)cc1` (relative stereo) [Example A29, trans-2-(4-(Phenylethynyl)phenyl)cyclopropanecarboxylic acid], the EC50 was 145 nM.

Turning to `O=C(O)COc1ccc(C#Cc2ccccc2)cc1` [Example A1, 2-(4-(Phenylethynyl)phenoxy)acetic acid], the EC50 is 1320 nM.

As to `Cc1ccccc1C#Cc1ccc(OCC(=O)O)cc1` [Example A2, 2-(4-(o-Tolylethynyl)phenoxy)acetic acid], the EC50 was 3630 nM.

Take `Cc1ccc(C#Cc2ccc(OCC(=O)O)cc2)cc1` [Example A3, 2-(4-(p-Tolylethynyl)phenoxy)acetic acid]: the EC50 was 29500 nM.

Turning to `Cc1cccc(C#Cc2ccc(OCC(=O)O)cc2)c1` [Example A4, 2-(4-(m-Tolylethynyl)phenoxy)acetic acid], the EC50 is 562 nM.

For the compound `O=C(O)CCc1ccc(C#Cc2ccccc2)cc1` [Example A5, 3-(4-(Phenylethynyl)phenyl)propanoic acid], the “GPR40 agonistic activity (pEC50)” value stood at 7.02.

As for `O=C(O)CCc1ccc(C#Cc2cccc3ccccc23)cc1` [Example A6, 3-(4-(1-Naphthylethynyl)phenyl)propanoic acid], the EC50 was 85.1 nM.

For the compound `Cc1cccc(C#Cc2ccc(CCC(=O)O)cc2)c1` [Example A7, 3-(4-(m-Tolylethynyl)phenyl)propanoic acid], the “GPR40 agonistic activity (pEC50)” value is 7.36.

As to `O=C(O)CCc1ccc(C#Cc2cccc(CO)c2)cc1` [Example A8, 3-(4-((3-(Hydroxymethyl)phenyl)ethynyl)phenyl)propanoic acid], the “GPR40 agonistic activity (pEC50)” value amounted to 6.05.

Consider `Cc1ccccc1C#Cc1ccc(CCC(=O)O)cc1` [Example A9, 3-(4-(o-Tolylethynyl)phenyl)propanoic acid], for which the “GPR40 agonistic activity (pEC50)” value is listed as 7.49.

Consider `N#Cc1cccc(C#Cc2ccc(CCC(=O)O)cc2)c1` [Example A11, 3-(4-((3-Cyanophenyl)ethynyl)phenyl)propanoic acid], for which the “GPR40 agonistic activity (pEC50)” value came out at 7.04.

Regarding `O=C(O)CCc1ccc(C#Cc2cccc([N+](=O)[O-])c2)cc1` [Example A12, 3-(4-((3-Nitrophenyl)ethynyl)phenyl)propanoic acid], the EC50 was 57.5 nM.

Regarding `O=Cc1cccc(C#Cc2ccc(CCC(=O)O)cc2)c1` [Example A13, 3-(4-((3-Formylphenyl)ethynyl)phenyl)propanoic acid], the “GPR40 agonistic activity (pEC50)” value was determined as 6.45.

Take `O=C(O)CCc1ccc(C#Cc2cccc(C(F)(F)F)c2)cc1` [Example A14, 3-(4-((3-(Trifluoromethyl)phenyl)ethynyl)phenyl)propanoic acid]: the “GPR40 agonistic activity (pEC50)” value stood at 7.05.

Regarding `Cc1cc(C)cc(C#Cc2ccc(CCC(=O)O)cc2)c1` [Example A15, 3-(4-((3,5-Dimethylphenyl)ethynyl)phenyl)propanoic acid], the “GPR40 agonistic activity (pEC50)” value was found to be 7.13.

`Cc1cccc(C#Cc2ccc(CCC(=O)O)cc2)c1C` [Example A16, 3-(4-((2,3-Dimethylphenyl)ethynyl)phenyl)propanoic acid]: the “GPR40 agonistic activity (pEC50)” value was 7.06.

On to `Nc1cccc(C#Cc2ccc(CCC(=O)O)cc2)c1` [Example A17, 3-(4-((3-Aminophenyl)ethynyl)phenyl)propanoic acid], for which the “GPR40 agonistic activity (pEC50)” value worked out at 5.96.

In the case of `C#Cc1cccc(C#Cc2ccc(CCC(=O)O)cc2)c1` [Example A18, 3-(4-((3-Ethynylphenyl)ethynyl)phenyl)propanoic acid], the “GPR40 agonistic activity (pEC50)” value is reported as 6.81.

As to `O=C(O)CCc1ccc(C#Cc2cccc(-c3cn(Cc4ccccc4)nn3)c2)cc1` [Example A19, 3-(4-((3-(1-Benzyl-1H-1,2,3-triazol-4-yl)phenyl)ethynyl)phenyl)propanoic acid], the EC50 was 1910 nM.

Regarding `O=C(O)CCc1ccc(C#Cc2ccccn2)cc1` [Example A20, 3-(4-(Pyridin-2-ylethynyl)phenyl)propanoic acid], the EC50 is 8130 nM.

Turning to `O=C(O)CCc1ccc(C#Cc2cccnc2)cc1` [Example A21, 3-(4-(Pyridin-3-ylethynyl)phenyl)propanoic acid], the EC50 is 2750 nM.

Turning to `O=C(O)CCc1ccc(C#Cc2ccnc(Cl)c2)cc1` [Example A22, 3-(4-((2-Chloropyridin-4-yl)ethynyl)phenyl)propanoic acid], the EC50 is 115 nM.

`Cc1cccc(C#Cc2ccc(CCC(=O)O)cc2)n1` [Example A23, 3-(4-((6-Methylpyridin-2-yl)ethynyl)phenyl)propanoic acid]: the EC50 is 3800 nM.

`O=C(O)COc1ccc(C#Cc2cccc(O)c2)cc1` [Example A24, 2-(4-((3-Hydroxyphenyl)ethynyl)phenoxy)ethanoic acid]: the EC50 is 4790 nM.

As for `O=C(O)COc1ccc(C#Cc2ccc(O)cc2)cc1` [Example A25, 2-(4-((4-Hydroxyphenyl)ethynyl)phenoxy)ethanoic acid], the EC50 was 132000 nM.

As for `O=C(O)COc1ccc(C#Cc2ccc(CO)cc2)cc1` [Example A26, 2-(4-((4-(Hydroxymethyl)phenyl)ethynyl)phenoxy)ethanoic acid], the EC50 is 112000 nM.

Take `CCc1ccccc1C#Cc1ccc(CCC(=O)O)cc1` [Example A30, 3-(4-((2-Ethylphenyl)ethynyl)phenyl)propanoic acid]: the “GPR40 agonistic activity (pEC50)” value is listed as 7.05.

In the case of `Cc1cc(C#Cc2ccc(CCC(=O)O)cc2)ccn1` [Example A32, 3-(4-((2-Methylpyridin-4-yl)ethynyl)phenyl)propanoic acid], the “GPR40 agonistic activity (pEC50)” value is on record as 5.95.

Regarding `O=C(O)CCc1ccc(C#Cc2cc(Cl)nc(Cl)c2)cc1` [Example A33, 3-(4-((2,6-Dichloropyridin-4-yl)ethynyl)phenyl)propanoic acid], the EC50 is 56.2 nM.

Regarding `O=C(O)CCc1ccc(C#Cc2ncccc2[N+](=O)[O-])cc1` [Example A34, 3-(4-((3-Nitropyridin-2-yl)ethynyl)phenyl)propanoic acid], the “GPR40 agonistic activity (pEC50)” value was 4.96.

Consider `O=C(O)C1CC1c1ccc(C#Cc2cc(Cl)nc(Cl)c2)cc1` (stereo not drawn) [Example A35, 2-(4-((2,6-Dichloropyridin-4-yl)ethynyl)phenyl)cyclopropanecarboxylic acid], for which the “GPR40 agonistic activity (pEC50)” value was 7.37.

Take `Cc1ccccc1C#Cc1ccc(C2CC2C(=O)O)cc1` (stereo not drawn) [Example A36, 2-(4-(o-Tolylethynyl)phenyl)cyclopropanecarboxylic acid]: the EC50 was 138 nM.

On to `Cc1cccc(C#Cc2ccc(C3CC3C(=O)O)cc2)c1` (stereo not drawn) [Example A37, 2-(4-(m-Tolylethynyl)phenyl)cyclopropanecarboxylic acid], for which the EC50 was 93.3 nM.

In the case of `Cc1ccc(C#Cc2ccc(C3CC3C(=O)O)cc2)cc1` (stereo not drawn) [Example A38, 2-(4-(p-Tolylethynyl)phenyl)cyclopropanecarboxylic acid], the EC50 is 309 nM.

As for `O=C(O)CCc1ccc(C#Cc2ccccc2-c2ccccc2)cc1` [Example A40, 3-(4-(Biphenyl-2-ylethynyl)phenyl)propanoic acid], the “GPR40 agonistic activity (pEC50)” value is listed as 6.00.

As to `Cc1cccc(C)c1C#Cc1ccc(CCC(=O)O)cc1` [Example A50, 3-(4-((2,6-Dimethylphenyl)etnynyl)phenyl)propanoic acid], the “GPR40 agonistic activity (pEC50)” value worked out at 6.38.

As to `COc1ccccc1C#Cc1ccc(CCC(=O)O)cc1` [Example A51, 3-(4-((2-Methoxyphenyl)ethynyl)phenyl) acid], the “GPR40 agonistic activity (pEC50)” value is recorded as 6.66.

With `O=C(O)CCc1ccc(C#Cc2cccc(O)c2)cc1` [Example A52, 3-(4-((3-Hydroxyphenyl)ethynyl)phenyl)propanoic acid], the “GPR40 agonistic activity (pEC50)” value is on record as 6.35.

On to `CC(=O)c1ccccc1C#Cc1ccc(CCC(=O)O)cc1` [Example A53, 3-(4-((2-Acetylphenyl)ethynyl)phenyl)propanoic acid], for which the “GPR40 agonistic activity (pEC50)” value turned out to be 6.73.

Turning to `O=C(O)CCc1ccc(C#Cc2cccc(OCc3ccccc3)c2)cc1` [Example A55, 3-(4-((3-(Benzyloxy)phenyl)ethynyl)phenyl)propanoic acid], the EC50 is 525 nM.

As for `C#CCOc1cccc(C#Cc2ccc(CCC(=O)O)cc2)c1` [Example A56, 3-(4-((3-(Prop-2-ynyloxy)phenyl)ethynyl)phenyl)propanoic acid], the EC50 is 77.6 nM.

As for `C=CCOc1cccc(C#Cc2ccc(CCC(=O)O)cc2)c1` [Example A57, 3-(4-((3-(Allyloxy)phenyl)ethynyl)phenyl)propanoic acid], the EC50 is 145 nM.

Turning to `O=C(O)CCc1ccc(C#Cc2ccccc2O)cc1` [Example A58, 3-(4-((2-Hydroxyphenyl)ethynyl)phenyl)propanoic acid], the “GPR40 agonistic activity (pEC50)” value stood at 4.79.

`O=C(O)CCc1ccc(C#Cc2ccccc2CO)cc1` [Example A59]: the “GPR40 agonistic activity (pEC50)” value amounted to 6.24.

Consider `Cc1ccc(S(=O)(=O)OCCc2ccccc2C#Cc2ccc(CCC(=O)O)cc2)cc1` [Example A61, 3-(4-((2-(2-(Tosyloxy)ethyl)phenyl)ethynyl)phenyl)propanoic acid], for which the EC50 was 316 nM.
